This note sets out measurements from patent US10029984B2, “Mono- or di-substituted indole derivatives as dengue viral replication inhibitors” (Janssen Pharmaceuticals, Inc., priority 2015, dated 2018).

One data set deals with DENV-2 16681 strain. Nature of the data set: DENV-2 antiviral assay (eGFP-labeled virus in Vero cells). The class given is cell-based, Dengue virus. Conditions: DENV-2 16681 eGFP, MOI 0.5, 3 days. On the procedure: The antiviral activity of all the compounds of the invention was tested against DENV-2 16681 strain which was labeled with enhanced green fluorescent protein (eGPF; Table 1). The culture medium consists of minimal essential medium supplemented with 2% of heat-inactivated fetal calf serum, 0.04% gentamycin (50 mg/mL) and 2 mM of L-glutamine. Vero cells, obtained from ECACC, were suspended in culture medium and 25 μL was added to 384-well plates (2500 cells/well), which already contain the antiviral compounds. Typically, these plates contain a 4-fold serial dilution of 9 dilution steps of the test compound at 200 times the final concentration in 100% DMSO (200 nL). In addition, each compound concentration is tested in quadruplicate (final concentration range: 25 μM-0.00038 μM). Finally, each plate contains wells which are assigned as virus controls (containing cells and virus in the absence of compound), cell controls (containing cells in the absence of virus and compound) and medium controls (containing medium in the absence of cells, virus and compounds). To the wells assigned as medium control, 25 μL of culture medium was added instead of Vero cells. Once the cells were added to the plates, the plates were incubated for 30 minutes at room temperature to allow the cells to distribute evenly within the wells. Next, the plates were incubated in a fully humidified incubator (37° C., 5% CO2) until the next day. Then, DENV-2 strain 16681, labeled with eGFP, was added at a multiplicity of infection (MOI) of 0.5. Therefore, 15 μL of virus suspension was added to all the wells containing test compound and to the wells assigned as virus control. In parallel, 15 μL of culture medium was added to the medium and cell controls. Next, the plates were incubated for 3 days in a fully humidified incubator (37° C., 5% CO2). At the day of the read out, the eGFP fluorescence was measured using an automated fluorescence microscope at 488 nm (blue laser). Using an in-house LIMS system, inhibition dose response curves for each compound were calculated and the half maximal effective concentration (EC50) was determined. Therefore, the percent inhibition (I) for every test concentration is calculated using the following formula: I=100*(ST−SCC)/(SVC−SCC); ST, SCC and SVC are the amount of eGFP signal in the test compound, cell control and virus control wells, respectively. The EC50 represents the concentration of a compound at which the virus replication is inhibited with 50%, as measured by a 50% reduction of the eGFP fluorescent intensity compared to the virus control. The EC50 is calculated using linear interpolation.

A short description of another data set: in vitro. In kind it is cell-based. Conditions: African green monkey, CC50. Here is the method: In parallel, the toxicity of the compounds was assessed on the same plates. Once the read-out for the eGFP signal was done, 10 μL of resazurin, a cell viability stain, was added to all wells of the 384-well plates. The resazurin assay is based on the reduction of the blue resazurin by NADH, produced by the cells, into the highly fluorescent product, resorufin. The formation of pink fluorescent resorufin is directly related to the number of viable cells in the well. The plates were incubated for an additional 5 hours in a fully humidified incubator (37° C., 5% CO2). Next, the plates were measured on an Infinite reader (Tecan) using an excitation wavelength of 530 nm. The half maximal cytotoxic concentration (CC50) was also determined, defined as the concentration required to reduce the resazurin conversion by 50% compared to that of the cell control wells. Finally, the selectivity index (SI) was determined for the compounds, which was calculated as followed: SI=CC50/EC50.

The mark [1] stands for this setting: Dengue virus, DENV2, Vero, 72 h.

The molecule `COc1cc(NC(C(=O)c2c[nH]c3cc(OC)ccc23)c2ccc(F)cc2OC)cc(S(C)(=O)=O)c1` (single isomer, unassigned) [Enantiomer 5A, 2-(4-fluoro-2-methoxyphenyl)-1-(6-methoxy-1H-indol-3-yl)-2-((3-methoxy-5-(methylsulfonyl)phenyl)amino)ethanone] had a 50% effective concentration (EC50) in the data set with DENV-2 16681 strain (listed as 5A) of 70 nM. Further, it took 24000 nM to reach half-maximal cytotoxicity in “in vitro” (CC50).

In the case of `COc1cc(NC(C(=O)c2c[nH]c3cc(C)c(F)cc23)c2ccc(F)cc2OC)cc(S(C)(=O)=O)c1` (racemic) [Compound 9, 2-(4-fluoro-2-methoxyphenyl)-1-(5-fluoro-6-methyl-1H-indol-3-yl)-2-((3-methoxy-5-(methylsulfonyl)phenyl)amino)ethanone], the EC50 in the data set on DENV-2 16681 strain (setting [1]) is 1.6 nM. In addition, the midpoint of cytotoxicity in the data set “in vitro”, the CC50, lay at 8800 nM.

Take `COc1cc(NC(C(=O)c2c[nH]c3cc(OC)c(Cl)cc23)c2ccc(F)cc2OC)cc(S(C)(=O)=O)c1` (racemic) [Compound 16, 1-(5-chloro-6-methoxy-1H-indol-3-yl)-2-(4-fluoro-2-methoxyphenyl)-2-((3-methoxy-5-(methylsulfonyl)phenyl)amino)ethanone]: it took 0.66 nM to reach a half-maximal effect in the data set with DENV-2 16681 strain (setting [1]) (EC50). The molecule also displayed a half-maximal cytotoxic concentration (CC50) in the data set “in vitro” of 8800 nM.

Take `COc1cc(NC(C(=O)c2c[nH]c3c(F)c(F)ccc23)c2ccc(F)cc2OC)cc(S(C)(=O)=O)c1` (single isomer, unassigned) [Enantiomer 13A, 1-(6,7-difluoro-1H-indol-3-yl)-2-(4-fluoro-2-methoxyphenyl)-2-((3-methoxy-5-(methylsulfonyl)phenyl)amino)ethanone]: in the data set on DENV-2 16681 strain (listed as 13A), the concentration giving a half-maximal response (EC50) is 17 nM. The molecule further had a CC50 in the data set “in vitro” of 9500 nM.

`COc1cc(NC(C(=O)c2c[nH]c3c(C)c(Cl)ccc23)c2ccc(F)cc2OC)cc(S(C)(=O)=O)c1` (racemic) [Compound 3, 1-(6-chloro-7-methyl-1H-indol-3-yl)-2-(4-fluoro-2-methoxyphenyl)-2-((3-methoxy-5-(methylsulfonyl)phenyl)amino)ethanone] had an EC50 in the data set on DENV-2 16681 strain (setting [1]) of 0.58 nM. The molecule further displayed a CC50 in the data set “in vitro” of 7200 nM.

In the case of `COc1cc(NC(C(=O)c2c[nH]c3cc(F)c(F)cc23)c2ccc(F)cc2OC)cc(S(C)(=O)=O)c1` (racemic) [Compound 7, 1-(5,6-difluoro-1H-indol-3-yl)-2-(4-fluoro-2-methoxyphenyl)-2-((3-methoxy-5-(methylsulfonyl)phenyl)amino)ethanone], the half-maximal effective concentration (EC50) in the data set on DENV-2 16681 strain (setting [1]) was 1.5 nM. This molecule had a CC50 in the data set “in vitro” of 5000 nM.

Take `COc1cc(NC(C(=O)c2c[nH]c3c(C)c(F)ccc23)c2ccc(F)cc2OC)cc(S(C)(=O)=O)c1` (racemic) [Compound 2, 2-(4-fluoro-2-methoxyphenyl)-1-(6-fluoro-7-methyl-1H-indol-3-yl)-2-((3-methoxy-5-(methylsulfonyl)phenyl)amino)ethanone]: the EC50 in the data set with DENV-2 16681 strain (setting [1]) amounted to 1.3 nM. Also, in “in vitro”, half-maximal cytotoxicity (CC50) was put at 8000 nM.

For the molecule `COc1cc(NC(C(=O)c2c[nH]c3cc(F)c(C)cc23)c2ccc(F)cc2OC)cc(S(C)(=O)=O)c1` (racemic) [Compound 14, 2-(4-fluoro-2-methoxyphenyl)-1-(6-fluoro-5-methyl-1H-indol-3-yl)-2-((3-methoxy-5-(methylsulfonyl)phenyl)amino)ethanone], a half-maximal response in the data set on DENV-2 16681 strain (setting [1]) (EC50) required 1.5 nM. For the same molecule, half-maximal cytotoxicity in “in vitro” (CC50) was put at 5300 nM.

As for `COc1cc(NC(C(=O)c2c[nH]c3ccc(OC(F)(F)F)cc23)c2ccc(F)cc2OC)cc(S(C)(=O)=O)c1` (racemic) [Compound 18, 2-(4-fluoro-2-methoxyphenyl)-2-((3-methoxy-5-(methylsulfonyl)phenyl)amino)-1-(5-(trifluoromethoxy)-1H-indol-3-yl)ethanone], in the data set with DENV-2 16681 strain (setting [1]), it took 0.25 nM to reach a half-maximal effect (EC50). The same molecule displayed a CC50 in “in vitro” of 3300 nM.

Molecule `COc1cc(NC(C(=O)c2c[nH]c3cc(OC)c(F)cc23)c2ccc(F)cc2OC)cc(S(C)(=O)=O)c1` (racemic) [Compound 11, 2-(4-fluoro-2-methoxyphenyl)-1-(5-fluoro-6-methoxy-1H-indol-3-yl)-2-((3-methoxy-5-(methylsulfonyl)phenyl)amino)ethanone] gave an EC50 in the data set with DENV-2 16681 strain (setting [1]) of 3 nM. The cytotoxic concentration (CC50) in the data set “in vitro” turned out to be 12000 nM.

In the data set on DENV-2 16681 strain (setting [1]), `COc1cc(NC(C(=O)c2c[nH]c3ccc(C)cc23)c2ccc(F)cc2OC)cc(S(C)(=O)=O)c1` (racemic) [Compound 15, 2-(4-fluoro-2-methoxyphenyl)-2-((3-methoxy-5-(methylsulfonyl)phenyl)amino)-1-(5-methyl-1H-indol-3-yl)ethanone] had an EC50 of 1.5 nM. Also, the CC50 in the data set “in vitro” stood at 7800 nM.

The molecule `COc1cc(NC(C(=O)c2c[nH]c3cc(F)ccc23)c2ccc(F)cc2OC)cc(S(C)(=O)=O)c1` (racemic) [Compound 1, 1-(6-fluoro-1H-indol-3-yl)-2-(4-fluoro-2-methoxyphenyl)-2-((3-methoxy-5-(methylsulfonyl)phenyl)amino)ethanone] yielded a concentration giving a half-maximal response (EC50) with DENV-2 16681 strain (setting [1]) of 2 nM. The molecule further returned a CC50 in the data set “in vitro” of 9900 nM.

In the data set on DENV-2 16681 strain (setting [1]), `COc1cc(NC(C(=O)c2c[nH]c3c(F)c(F)ccc23)c2ccc(F)cc2OC)cc(S(C)(=O)=O)c1` (racemic) [Compound 13, 1-(6,7-difluoro-1H-indol-3-yl)-2-(4-fluoro-2-methoxyphenyl)-2-((3-methoxy-5-(methylsulfonyl)phenyl)amino)ethanone] had a half-maximal effective concentration (EC50) of 1.4 nM. Also, in the data set “in vitro”, the cytotoxic concentration (CC50) came to 7600 nM.

`COc1cc(NC(C(=O)c2c[nH]c3cc(OC)ccc23)c2ccc(F)cc2OC)cc(S(C)(=O)=O)c1` (racemic) [Compound 5, 2-(4-fluoro-2-methoxyphenyl)-1-(6-methoxy-1H-indol-3-yl)-2-((3-methoxy-5-(methylsulfonyl)phenyl)amino)ethanone] registered a concentration for a half-maximal effect (EC50) in the data set on DENV-2 16681 strain (setting [1]) of 2 nM. The molecule further registered a cytotoxic concentration (CC50) in “in vitro” of 24000 nM.

For the molecule `COc1cc(NC(C(=O)c2c[nH]c3ccc(C(F)(F)F)cc23)c2ccc(F)cc2OC)cc(S(C)(=O)=O)c1` (racemic) [Compound 17, 2-(4-fluoro-2-methoxyphenyl)-2-((3-methoxy-5-(methylsulfonyl)phenyl)amino)-1-(5-(trifluoromethyl)-1H-indol-3-yl)ethanone], the EC50 in the data set on DENV-2 16681 strain (setting [1]) was 0.24 nM. The same molecule registered a CC50 in “in vitro” of 3500 nM.

In the data set on DENV-2 16681 strain (setting [1]), `COc1cc(NC(C(=O)c2c[nH]c3c(Cl)c(OC)ccc23)c2ccc(F)cc2OC)cc(S(C)(=O)=O)c1` (racemic) [Compound 12, 1-(7-chloro-6-methoxy-1H-indol-3-yl)-2-(4-fluoro-2-methoxyphenyl)-2-((3-methoxy-5-(methylsulfonyl)phenyl)amino)ethanone] came in with a half-maximal effective concentration (EC50) of 0.6 nM. Also, in the data set “in vitro”, the CC50 was more than 25000 nM.

In the data set with DENV-2 16681 strain (setting [1]), `COc1cc(NC(C(=O)c2c[nH]c3cc(OC)c(C)cc23)c2ccc(F)cc2OC)cc(S(C)(=O)=O)c1` (racemic) [Compound 10, 2-(4-fluoro-2-methoxyphenyl)-2-((3-methoxy-5-(methylsulfonyl)phenyl)amino)-1-(6-methoxy-5-methyl-1H-indol-3-yl)ethanone] showed a concentration for a half-maximal effect (EC50) of 1.1 nM. In addition, the CC50 in the data set “in vitro” came out at 7800 nM.

As to `COc1cc(NC(C(=O)c2c[nH]c3c(C)cc(F)cc23)c2ccc(F)cc2OC)cc(S(C)(=O)=O)c1` (racemic) [Compound 8, 2-(4-fluoro-2-methoxyphenyl)-1-(5-fluoro-7-methyl-1H-indol-3-yl)-2-((3-methoxy-5-(methylsulfonyl)phenyl)amino)ethanone], in the data set with DENV-2 16681 strain (setting [1]), the EC50 was determined as 2.8 nM. Moreover, it took 7600 nM to reach half-maximal cytotoxicity in the data set “in vitro” (CC50).

For `COc1cc(NC(C(=O)c2c[nH]c3cc(Cl)ccc23)c2ccc(F)cc2OC)cc(S(C)(=O)=O)c1` (racemic) [Compound 4, 1-(6-chloro-1H-indol-3-yl)-2-(4-fluoro-2-methoxyphenyl)-2-((3-methoxy-5-(methylsulfonyl)phenyl)amino)ethanone], it took 1.1 nM to reach a half-maximal effect in the data set on DENV-2 16681 strain (setting [1]) (EC50). This molecule also showed a CC50 in the data set “in vitro” of 6600 nM.
